Data from paper PMC2680961, “Homologous desensitization of signalling by the alpha (α) isoform of the human thromboxane A2 receptor: A specific role for nitric oxide signalling” (Biochimica et Biophysica Acta, 2007).

How the values were obtained:
TPα^Δ336 = biological target: T1, TPα^Δ336 (Homo sapiens, UniProt P21731); assay: [3H]SQ29,548 radioligand binding, Scatchard analysis, HEK.TPα^Δ336
T1 construct: expressed in transfected cells
T1 sequence (P21731 1-335): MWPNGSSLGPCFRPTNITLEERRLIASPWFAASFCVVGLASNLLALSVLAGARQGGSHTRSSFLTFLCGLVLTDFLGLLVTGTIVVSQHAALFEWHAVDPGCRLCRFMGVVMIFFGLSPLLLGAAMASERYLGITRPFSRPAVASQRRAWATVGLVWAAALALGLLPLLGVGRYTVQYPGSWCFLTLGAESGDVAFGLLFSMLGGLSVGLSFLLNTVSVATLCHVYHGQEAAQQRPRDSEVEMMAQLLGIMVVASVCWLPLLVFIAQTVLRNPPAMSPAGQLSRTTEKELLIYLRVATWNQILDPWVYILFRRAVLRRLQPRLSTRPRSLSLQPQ
Procedure: (§1) Cells were harvested by centrifugation at 500×g at 4 °C for 5 min and washed three times with ice-cold Ca^2+/Mg^2+-free phosphate-buffered saline (PBS). TP radioligand binding assays were carried out at 30 °C for 30 min in 100 μl reactions in the presence of 0–40 nM [^3H] […] Protein determinations were carried out using the Bradford assay.
(§2) Radioligand binding and Scatchard analysis data were analysed using GraphPad Prisim V4.0 programme (GraphPad Software Inc., San Diego CA, USA). Statistical analyses were carried out using the unpaired Student's t test using the Statworks Analysis Package. p-values ≤ 0.01 indicated statistically significant differences.

TPα^T337,S340A = biological target: T2, TPα^T337,S340A (Homo sapiens, UniProt P21731, S340A/T337A); assay: [3H]SQ29,548 radioligand binding, Scatchard analysis, HEK.TPα^T337,S340A
T2 construct: expressed in transfected cells
T2 sequence (P21731 1-343 T337A/S340A): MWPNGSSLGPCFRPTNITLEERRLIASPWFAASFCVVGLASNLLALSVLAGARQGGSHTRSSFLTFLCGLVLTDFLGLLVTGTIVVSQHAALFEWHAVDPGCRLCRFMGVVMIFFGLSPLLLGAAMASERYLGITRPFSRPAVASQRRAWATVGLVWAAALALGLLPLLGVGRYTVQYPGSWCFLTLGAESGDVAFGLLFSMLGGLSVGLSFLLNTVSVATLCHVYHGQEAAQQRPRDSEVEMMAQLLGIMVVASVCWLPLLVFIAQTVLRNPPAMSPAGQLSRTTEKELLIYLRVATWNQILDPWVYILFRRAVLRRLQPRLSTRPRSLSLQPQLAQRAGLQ
Procedure: as §1, §2

TP^Δ328 = biological target: T3, TP^Δ328 (Homo sapiens, UniProt P21731); assay: IP3 generation, HEK.TP^Δ328 cells; format: cell-based; settings: 1 μM U46619 2 min, washout, restimulation at 60 min
T3 construct: expressed in transfected cells
T3 sequence (P21731 1-328): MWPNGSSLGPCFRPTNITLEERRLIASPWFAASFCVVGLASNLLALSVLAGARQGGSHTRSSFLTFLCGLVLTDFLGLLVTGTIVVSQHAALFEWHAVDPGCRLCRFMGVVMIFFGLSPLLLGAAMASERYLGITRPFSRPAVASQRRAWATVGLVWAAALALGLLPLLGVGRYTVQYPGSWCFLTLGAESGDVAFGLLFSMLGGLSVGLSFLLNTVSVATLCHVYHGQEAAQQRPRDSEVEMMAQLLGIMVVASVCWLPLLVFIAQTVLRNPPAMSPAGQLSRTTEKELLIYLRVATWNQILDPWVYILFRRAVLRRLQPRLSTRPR
Procedure: Intracellular IP3 levels were measured as previously described [[33,43]]. Briefly, cells were harvested by scraping, washed twice in ice-cold PBS and resuspended at approximately 2 × 10^6 cells/200 μl in HEPES-buffered saline (HBS; […], 4.7 mM KCl, 2.2 mM CaCl2, 1.2 mM KH2PO4, 11 mM glucose, 15 mM HEPES–NaOH, pH 7.4), 10 mM LiCl (Walsh et al., 2000). […] Thereafter, cells were stimulated with 1 μM U46619 at 37 °C for 2 min. To assess agonist-mediated homologous desensitization, cells (2 × 10^6 cells/200 μl) were stimulated with 1 μM U46619 at 37 °C for 2 min (Primary stimulation); thereafter, cells were collected by centrifugation (900×g, 5 min); were washed once in 200 μl HBS, 10 mM LiCl and finally resuspended in 200 μl HBS, 10 mM LiCl and were left to recover for 60 min; thereafter, cells were re-stimulated with 1 μM U46619 at 37 °C for 2 min (secondary stimulation). All ligands and […] were pre-diluted in HBS such that 50 μl added to 200 μl of cell suspension in HBS gave the desired final concentration. To determine basal IP3 levels, an equivalent volume (50 μl) of the vehicle HBS was added instead of ligand. The level of IP3 produced was quantified by radio competition assay essentially as described. […]

Bmax (pmol/mg protein ± S.E.M.) (TPα^Δ336)	Bmax (pmol/mg protein ± S.E.M.) (TPα^T337,S340A)	IP3 generation following secondary restimulation after U46619 pre-incubation (TP^Δ328)	SMILES
4.43 ± 0.04 pmol/mg protein	4.9 ± 0.04 pmol/mg protein	–	O=C(O)CCC/C=C\C[C@@H]1[C@H](CNNC(=O)Nc2ccccc2)[C@H]2CC[C@@H]1O2 [SQ29,548]
–	–	no significant effect	CCCCC[C@H](O)/C=C/[C@@H]1[C@@H](C/C=C\CCCC(=O)O)[C@H]2CO[C@@H]1C2 [U46619]
